Results from PubChem BioAssay (NCI).
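Cultured in 96-well plates, cells were exposed to test compound for 48 hours across five concentrations. GI50: concentration for 50% inhibition of growth. TGI: total growth inhibition.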

What was measured:
Test in all cases: inhibition of tumour cell growth, NCI panel, 48 h
[1] = tested on: A498 renal
[2] = tested on: KM12 colon
[3] = tested on: LOX IMVI melanoma
[4] = tested on: MALME-3M melanoma
[5] = tested on: MOLT-4 leukemia
[6] = tested on: NCI-H23 lung
[7] = tested on: PC-3 prostate
[8] = tested on: RPMI-8226 leukemia
[9] = tested on: SN12C renal
[10] = tested on: SNB-19 CNS

## Cc1ccc(Sc2cc3c(oc2=O)-c2ccccc2OC3O)cc1 (stereo not given)
[1]
  GI50: 26.1 µM
  TGI: 51.5 µM
[2]
  GI50: 21.5 µM
  TGI: 49.7 µM
[3]
  GI50: 18 µM
  TGI: 40 µM
[4]
  GI50: 25 µM
  TGI: 49.2 µM
[5]
  GI50: 13.3 µM
  TGI: 34.2 µM
[6]
  GI50: 27.7 µM
  TGI: 55.3 µM
[7]
  GI50: 28 µM
  TGI: 76.5 µM
[8]
  GI50: 23.2 µM
  TGI: 79.7 µM
[9]
  GI50: 29.4 µM
  TGI: 73.3 µM
[10]
  GI50: 25 µM
  TGI: 62.1 µM

## Oc1ccc(Cc2cc(Cl)cc(Cl)c2O)cc1Cl
[1]
  TGI: 33.8 µM
[2]
  TGI: 49.6 µM
[3]
  TGI: 31.4 µM
[4]
  TGI: 30.9 µM
[5]
  TGI: 55.6 µM
[6]
  TGI: 32.3 µM
[7]
  TGI: 33.1 µM
[8]
  TGI: 48.4 µM
[9]
  TGI: 30.2 µM
[10]
  TGI: 33.7 µM

## CCN(Cc1c(Cl)cccc1Cl)c1ccc(CO)c(Cl)c1
[1]
  GI50: < 0.02 µM
  TGI: 0.0465 µM
[2]
  GI50: 13.7 µM
  TGI: 28.4 µM
[3]
  GI50: 16.9 µM
  TGI: 32.6 µM
[4]
  GI50: 12.6 µM
  TGI: 27.2 µM
[5]
  GI50: 14.8 µM
  TGI: 35.7 µM
[6]
  GI50: 10.8 µM
  TGI: 26.2 µM
[7]
  GI50: 11.3 µM
  TGI: 23.9 µM
[8]
  GI50: 1.12 µM
  TGI: 17.6 µM
[9]
  GI50: 11.7 µM
  TGI: 24 µM
[10]
  GI50: 13.2 µM
  TGI: 26.2 µM

## Cc1cc(Nc2cc(N)ncn2)c(=O)n2c1C(=O)NC21CCCCC1
[1]
  GI50: 50.7 µM
  TGI: > 100 µM
[2]
  GI50: > 100 µM
  TGI: > 100 µM
[3]
  GI50: > 100 µM
  TGI: > 100 µM
[4]
  GI50: > 100 µM
  TGI: > 100 µM
[5]
  GI50: > 100 µM
  TGI: > 100 µM
[6]
  GI50: > 100 µM
  TGI: > 100 µM
[7]
  GI50: > 100 µM
  TGI: > 100 µM
[8]
  GI50: > 100 µM
  TGI: > 100 µM
[9]
  GI50: > 100 µM
  TGI: > 100 µM
[10]
  GI50: > 100 µM
  TGI: > 100 µM

## CC(=O)c1cc(O)c2ccccc2c1O
[1]
  GI50: 89.5 µM
  TGI: > 100 µM
[2]
  GI50: 18.8 µM
  TGI: 35.1 µM
[3]
  GI50: 14.8 µM
  TGI: 39.3 µM
[4]
  GI50: 18.2 µM
  TGI: 34.2 µM
[5]
  GI50: 33.6 µM
  TGI: 99.4 µM
[6]
  GI50: 20.2 µM
  TGI: 53.7 µM
[7]
  GI50: 20.3 µM
  TGI: 50.8 µM
[8]
  GI50: 22.7 µM
  TGI: 60.5 µM
[9]
  GI50: 17.5 µM
  TGI: 36.3 µM
[10]
  GI50: 46 µM
  TGI: > 100 µM

## O=C(O)C(Oc1nc(=S)[nH]c(=S)[nH]1)(c1ccc(Cl)cc1)c1ccc(Cl)cc1
[1]
  TGI: > 100 µM
[2]
  TGI: > 100 µM
[3]
  TGI: > 100 µM
[4]
  TGI: > 100 µM
[5]
  TGI: > 100 µM
[6]
  TGI: > 100 µM
[7]
  TGI: > 100 µM
[8]
  TGI: > 100 µM
[9]
  TGI: > 100 µM
[10]
  TGI: > 100 µM

## COc1cc(NC(=O)C2=C(N3CCOCC3)/C(=C/c3ccc(Cl)cc3)CC2)cc(OC)c1OC
[1]
  GI50: 4.97 µM
  TGI: 27.7 µM
[2]
  GI50: > 100 µM
  TGI: > 100 µM
[3]
  GI50: > 100 µM
  TGI: > 100 µM
[4]
  GI50: > 100 µM
  TGI: > 100 µM
[5]
  GI50: > 100 µM
  TGI: > 100 µM
[6]
  GI50: 48.8 µM
  TGI: > 100 µM
[7]
  GI50: 6.06 µM
  TGI: > 100 µM
[8]
  GI50: 2.97 µM
  TGI: > 100 µM
[9]
  GI50: 94.3 µM
  TGI: > 100 µM
[10]
  GI50: 28.8 µM
  TGI: 95.1 µM

## Nc1ncc(-c2cccc(S(N)(=O)=O)c2)c2scc(-c3ccc(F)c(Cl)c3)c12
[1]
  GI50: 5.73 µM
  TGI: 15.4 µM
[2]
  GI50: 5.56 µM
  TGI: 14.7 µM
[3]
  GI50: 4.84 µM
  TGI: 9.67 µM
[4]
  GI50: 6.94 µM
  TGI: 16.6 µM
[5]
  GI50: 5.35 µM
  TGI: > 19.2 µM
[6]
  GI50: 7.05 µM
  TGI: > 21 µM
[7]
  GI50: 6.83 µM
  TGI: > 20.6 µM
[8]
  GI50: 4.92 µM
  TGI: 14.9 µM
[9]
  GI50: 5.74 µM
  TGI: > 23.2 µM
[10]
  GI50: 10.6 µM
  TGI: > 25 µM

## O=c1oc2c(C(F)(F)F)cccc2cc1-c1csc(Nc2ccc(OCCF)cc2)n1
[1]
  GI50: 0.0353 µM
  TGI: 20.9 µM
[2]
  GI50: 0.0375 µM
  TGI: 17.5 µM
[3]
  GI50: 0.0467 µM
  TGI: > 42.2 µM
[4]
  GI50: 6.48 µM
  TGI: > 91.7 µM
[5]
  GI50: 0.0418 µM
  TGI: > 100 µM
[6]
  GI50: 0.0544 µM
  TGI: 23.4 µM
[7]
  GI50: 0.0446 µM
  TGI: > 100 µM
[8]
  GI50: 0.0406 µM
  TGI: 42.7 µM
[9]
  GI50: 0.271 µM
  TGI: > 64.4 µM
[10]
  GI50: 0.0873 µM
  TGI: > 56.4 µM

## CC(O)c1cc(C(=O)N[C@@H](C)Cn2ccc(-c3ccc(C#N)c(Cl)c3)n2)n[nH]1 (stereo not given in full)
[1]
  GI50: 3.51 µM
  TGI: 55.9 µM
[2]
  GI50: 76.7 µM
  TGI: > 100 µM
[3]
  GI50: 87.2 µM
  TGI: > 100 µM
[4]
  GI50: 42.5 µM
  TGI: > 100 µM
[5]
  GI50: 0.37 µM
  TGI: 5.15 µM
[6]
  GI50: 76 µM
  TGI: > 100 µM
[7]
  GI50: 22.1 µM
  TGI: > 100 µM
[8]
  GI50: 15.3 µM
  TGI: 80.6 µM
[9]
  GI50: 48.7 µM
  TGI: > 100 µM
[10]
  GI50: > 100 µM
  TGI: > 100 µM
